Here are results for five molecules from patent publication US20260355225A1 (priority 2022, published 2026).

Series [1] deals with HeLa TZMBL cells. Briefly: Cytotoxicity of D-xylose alone or + insulin, MTT assay, absence of viral infection (Example 2). (Tetrazolium dyes change colour on reduction, which living cells bring about.)
Test in series [2]: as above
The following applies: human, hela tzmbl cells.

For series [3], the system named is HIV-1 NL4-3. Description: Antiviral assay against HIV-1 NL4-3, percentage of infected cells by immunofluorescence (Example 2). The following applies: Human immunodeficiency virus 1, NL43, 48 h.
Test in series [4]: as above
To be noted: human, hela tzmbl cells, Viability Percentages, replicate wells.

In series [5] the test system is SARS-CoV-2. Description: Antiviral assay, inhibition of virus-induced cytopathic effect (CPE) of SARS-CoV-2 by MTT assay (Example 1). The following applies: remdesivir at the time of infection; for Viability percentage: 4320 min.
Series [6] is described as follows: Cytotoxicity of D-xylose, MTT assay, absence of viral infection (Example 1). The series is classed as cell-based. The following applies: monkey, vero cells, remdesivir at the time of infection, read-out: Viability percentage.
Method: (§1) Cells (Vero E6) were used, with two modes of administration: either at the same time or 6 h before infection with SARS-CoV-2 (isolated early).
(§2) The readout for this test is CPE, so the infection will be stopped at 72 hpi (hours post-infection), and the compound will remain for the duration of the experiment. In parallel, the cytotoxicity of the same compound concentrations will be tested in the absence of viral infection.
(§3) The day before the experiment, the 8,000 cells/well are seeded in two 96-well plates (clear, Sarstedt), one for the antiviral study and one for the cytotoxicity study.
(§4) 134.4 μl of the 1 M composition is transferred to 1,465.6 μl of infection medium (=84 mM, twice the final maximum concentration).
(§5) Next, the cell support in the cytotoxicity plate is removed.
(§6) Immediately afterwards, 50 μl of undiluted infection medium is added to all the wells.
(§7) Next, 50 μl of infection medium without diluent is added to columns 4 to 6.
(§8) Next, the plate is incubated at 37 °C, 5% CO2 for 48 h.
(§9) After 72 h, when the CPE is evident, an MTT assay is performed for the antiviral and cytotoxicity plates.
Series [7] relates to Vero AD cells. The description is as above. The series is classed as cell-based. The following applies: remdesivir at the time of infection.
Method: as §1, §2, §3, §4, §5, §6, §7, §8, §9
Series [8] deals with glycated hemoglobin (HbA1c). To be noted: healthy person; cited from earlier work.
Series [9] relates to SARS-CoV-2. To be noted: pre-incubation of 25 minutes prior to infection; cited from earlier work.
[10] abbreviates: AZT 0.002 μM, 2880 min, 0.002 µM.
[11] abbreviates: AZT 0.007 μM, 2880 min, 0.007 µM.
The mark [12] stands for this setting: AZT 0.062 μM, 2880 min, 0.062 µM.
The mark [13] stands for this setting: AZT 0.556 μM, 2880 min, 0.556 µM.
[14] abbreviates: AZT 1.667 μM, 2880 min, 1.667 µM.
Setting [15] is: Triton added to untreated cells as control.

Several values for one entry are separate records, joined by “and”; a condition that tells them apart may be missing. Equal entries are not always repeated.

As for `Cc1cn([C@H]2C[C@H](N=[N+]=[N-])[C@@H](CO)O2)c(=O)[nH]c1=O` [AZT, 3-azido-3-deoxythymidine, reference compound], the “Results for Cytotoxicity (MTT readout)” value in series [1] (AZT 0.002 μM) was 2.455 and 2.474 and 2.438; in [1] (AZT 0.007 μM), 2.29 and 2.333 and 2.278; in series [1] (AZT 0.062 μM), 2.307 and 2.356 and 2.337; in series [1] (AZT 0.556 μM), 2.353 and 2.414 and 2.406; in [1] (AZT 1.667 μM) it was 2.46 and 2.505 and 2.469; in [1] (AZT 5.000 μM) it was 2.337 and 2.402 and 2.36. In addition, the Cytotoxicity percentage in series [1] (setting [10]) was −1.89% and −2.69% and −1.17%; in series [1] (setting [11]), 3.26% and 5.58%; in [1] (setting [12]) it was 2.29% and 3.09%; in series [1] (setting [13]) it was 2.42% and −0.16% and 0.18%; in series [1] (setting [14]), −2.10% and −4.00% and −2.48%; in series [1] (AZT 5.000 μM, 2880 min, 5 µM), 3.09% and 0.35% and 2.12%. Further, the Viability percentage was 102.69% and 101.17% in [1] (setting [10]); 96.74% and 94.42% in [1] (setting [11]); 97.71% in series [1] (setting [12]); 100.16% and 99.82% in series [1] (setting [13]); 104.00% and 102.48% in series [1] (setting [14]); 99.65% and 97.88% in series [1] (AZT 5.000 μM, 2880 min, 5 µM). For the same molecule, in series [2] (Cytotoxicity percentage, AZT 0.007 μM), the cytotoxicity at 48 h, 0.007 µM turned out to be 5.07%. The cytotoxicity at 48 h, 0.062 µM in series [2] (Cytotoxicity percentage, AZT 0.062 μM) is 4.36%. Moreover, the viability – broadly, a read-out of living cells in per cent, often relative to untreated cells – at 48 h, 0.002 µM in [2] (Viability percentage, AZT 0.002 μM) came out at 102%; in [4] (AZT 0.002 μM), 29.9%. In addition, the viability at 48 h, 0.007 µM in series [2] (Viability percentage, AZT 0.007 μM) is 94.9%; in series [4] (AZT 0.007 μM), 48.2%. Also, the viability at 48 h, 0.062 µM was determined as 95.6% in [2] (Viability percentage, AZT 0.062 μM) and 74.2% in series [4] (AZT 0.062 μM). Further, the viability at 48 h, 0.556 µM in series [2] (Viability percentage, AZT 0.556 μM) is 97.6%; in series [4] (AZT 0.556 μM), 92.5%. For the same molecule, the viability at 48 h, 1.667 µM in series [2] (Viability percentage, AZT 1.667 μM) came out at 102%; in series [4] (AZT 1.667 μM), 96.8%. For the same molecule, the viability at 48 h, 5 µM in [2] (Viability percentage, AZT 5.000 μM) is 96.9%; in series [4] (AZT 5.000 μM), 99.1%. Further, the activity at 0.002 µM in series [3] (read-out: % Infection, AZT 0.002 μM, replicate wells) is 13.3%. Besides, in series [3] (read-out: % Infection, AZT 0.007 μM, replicate wells), the activity at 0.007 µM worked out at 9.89%. The activity at 0.062 µM in series [3] (read-out: % Infection, AZT 0.062 μM, replicate wells) is 5.07%. Also, the activity at 0.556 µM in series [3] (read-out: % Infection, AZT 0.556 μM, replicate wells) was found to be 1.7%. For the same molecule, the activity at 1.667 µM in series [3] (read-out: % Infection, AZT 1.667 μM, replicate wells) was found to be 0.89%. In series [3] (read-out: % Infection, AZT 5.000 μM, replicate wells), the activity at 5 µM turned out to be 0.47%.
In the case of `CCC(CC)COC(=O)[C@H](C)N[P@](=O)(OC[C@H]1O[C@@](C#N)(c2ccc3c(N)ncnn23)[C@H](O)[C@@H]1O)Oc1ccccc1` [Remdesivir, reference compound], the “absorbance at 570 nm” value in series [5] (0.16 μm) is 0.086 and 0.077 and 0.078; in series [5] (0.31 μm), 0.084 and 0.098; in series [5] (0.63 μm), 0.094; in series [5] (1.25 μm) it was 0.127 and 0.137 and 0.128; in series [5] (2.5 μm), 0.178 and 0.195; in series [5] (5 μm), 0.198 and 0.215 and 0.174. Moreover, the “absorbance at 570 nm” value in series [5] (10 μm) was 0.169 and 0.199 and 0.188. For the same molecule, the Viability percentage in [5] (1.25 μm) was 47.72% and 46.55% and 58.30%; in series [5] (2.5 μm), 92.36% and 106.46% and 126.43%; in [5] (5 μm), 101.76% and 129.96% and 149.93%; in series [5] (10 μm), 118.21% and 95.89% and 131.13%; in [5] (20 μm) it was 80.62% and 86.49% and 79.44%; in [7] (0.31 μm), 99.84%. Moreover, the Viability percentage was 108.33% in series [7] (0.63 μm); 110.83% and 112.82% in [7] (1.25 μm); 107.83% and 115.32% in series [7] (2.5 μm); 122.31% in [7] (5 μm); 106.83% in series [7] (10 μm); 94.35% and 93.35% in [7] (20 μm). The viability at […] in series [6] (0.16 μm) came out at 100%. In series [6] (0.31 μm), the viability at 0.31 µM was 106%. In addition, the viability at 0.63 µM in [6] (0.63 μm) is 102%. The viability at 1.25 µM in series [6] (1.25 μm) was determined as 103%. Further, the viability at 2.5 µM in series [6] (2.5 μm) amounted to 112%. In series [6] (5 μm), the viability at 5 µM turned out to be 110%. Besides, the viability at 10 µM in series [6] (10 μm) was 105%. Moreover, the viability at 20 µM in series [6] (20 μm) came out at 101%.
Regarding `OC[C@@H](O)[C@H](O)[C@@H](O)CO` [xylitol, reference compound], the “effect on glycated hemoglobin (HbA1c) levels” value in series [8] is “little or no effect”.
With Triton [reference compound], in [1] (setting [15]), the Cytotoxicity percentage is 99.99% and 100.03%; the “Results for Cytotoxicity (MTT readout)” value was 0.040 and 0.039; the Viability percentage was 0.01% and −0.03%.
On to heparin, for which the “inhibition of SARS-CoV-2 viral attachment” value in series [9] is “inhibits SARS-CoV-2 viral attachment”.
